Tests used:
Assay type in all cases: biochemical
ROCK1 [1] = target: T1, ROCK1 (Homo sapiens, UniProt Q13464); assay: In vitro Rho kinase inhibitory activity assay, ADP-Glo, Method A (ATP 10 μM); settings: read-out: Method A ROCK 1 (Ki)
Method: (§1) In Vitro Inhibitory Activity Assay Description (Method A)
(§2) The effectiveness of compounds of the present invention to inhibit Rho kinase activity can be determined in a 10 μL assay containing 40 mM Tris pH7.5, 20 mM MgCl2 0.1 mg/mL BSA, 50 μM DTT and 2.5 μM peptide substrate (Myelin Basic Protein) using an ADP-Glo kit (Promega). Compounds were dissolved in DMSO such that the final concentration of DMSO was 1% in the assay. All reactions/incubations are performed at 25° C. Compound (2 μL) and either Rho kinase 1 or 2 (4 μL) were mixed and incubated for 30 min. Reactions were initiated by addition of ATP (4 μL) such that the final concentration of ATP in the assay was 10 μM. After a 1 hour incubation 10 μL of ADP-Glo Reagent was added and after a further 45 minute incubation 20 μL of Kinase Detection Buffer was added and the mixture incubated for a further 30 minutes. The luminescent signal was measured on a luminometer. […] Compounds were tested in dose-response format and the inhibition of kinase activity was calculated at each concentration of compound. To determine the IC50 (concentration of compound required to inhibit 50% of the enzyme activity) data were fit to a plot of % inhibition vs Log10 compound concentration using a sigmoidal fit with a variable slope and fixing the maximum to 100% and the minimum to 0%. To determine the Ki values the Cheng-Prusoff equation was utilized (Ki=IC50/(1+[S]/Km).

ROCK2 [2] = target: T2, ROCK2 (Homo sapiens, UniProt O75116); assay: as above; settings: read-out: Method A ROCK 2 (Ki)
T2 sequence (O75116 whole entry): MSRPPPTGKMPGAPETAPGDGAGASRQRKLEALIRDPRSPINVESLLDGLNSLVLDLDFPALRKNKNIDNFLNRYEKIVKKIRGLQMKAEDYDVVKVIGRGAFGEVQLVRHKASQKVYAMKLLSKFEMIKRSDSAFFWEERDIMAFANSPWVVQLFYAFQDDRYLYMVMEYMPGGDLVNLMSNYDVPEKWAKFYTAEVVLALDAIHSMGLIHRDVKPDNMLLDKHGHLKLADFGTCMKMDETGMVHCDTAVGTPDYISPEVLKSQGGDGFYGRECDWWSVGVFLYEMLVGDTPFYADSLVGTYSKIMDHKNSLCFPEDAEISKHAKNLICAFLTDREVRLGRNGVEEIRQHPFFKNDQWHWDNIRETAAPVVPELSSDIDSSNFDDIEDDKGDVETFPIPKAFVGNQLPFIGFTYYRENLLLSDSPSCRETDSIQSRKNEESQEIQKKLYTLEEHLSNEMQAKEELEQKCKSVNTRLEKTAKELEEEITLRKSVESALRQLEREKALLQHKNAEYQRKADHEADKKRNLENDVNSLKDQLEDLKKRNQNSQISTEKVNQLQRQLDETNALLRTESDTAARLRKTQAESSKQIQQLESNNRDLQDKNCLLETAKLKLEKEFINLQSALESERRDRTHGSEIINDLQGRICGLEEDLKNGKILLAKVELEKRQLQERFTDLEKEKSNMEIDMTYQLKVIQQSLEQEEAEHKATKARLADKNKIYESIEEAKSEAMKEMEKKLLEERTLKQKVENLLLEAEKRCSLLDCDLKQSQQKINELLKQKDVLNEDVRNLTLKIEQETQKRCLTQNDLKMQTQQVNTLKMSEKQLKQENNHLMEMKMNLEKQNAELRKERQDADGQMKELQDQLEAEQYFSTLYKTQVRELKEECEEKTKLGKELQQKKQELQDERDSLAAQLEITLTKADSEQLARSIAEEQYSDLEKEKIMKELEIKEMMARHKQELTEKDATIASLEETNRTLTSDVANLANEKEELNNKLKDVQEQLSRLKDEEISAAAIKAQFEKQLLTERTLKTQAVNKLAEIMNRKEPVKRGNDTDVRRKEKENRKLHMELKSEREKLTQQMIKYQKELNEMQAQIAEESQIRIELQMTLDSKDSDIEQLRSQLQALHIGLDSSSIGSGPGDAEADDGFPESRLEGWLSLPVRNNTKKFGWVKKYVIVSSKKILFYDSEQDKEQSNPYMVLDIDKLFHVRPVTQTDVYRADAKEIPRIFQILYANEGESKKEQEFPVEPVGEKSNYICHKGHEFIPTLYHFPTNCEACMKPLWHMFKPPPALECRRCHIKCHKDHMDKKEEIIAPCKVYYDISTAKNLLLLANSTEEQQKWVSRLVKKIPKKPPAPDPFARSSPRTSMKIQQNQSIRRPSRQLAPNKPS
Method: as §1, §2

ROCK1 [3] = target: T1, ROCK1; assay: In vitro Rho kinase inhibitory activity assay, ADP-Glo, Method B (ATP 200 μM); settings: read-out: Method B ROCK 1 (Ki)
Method: (§3) In Vitro Inhibitory Activity Assay Description (Method B)
as §2, with “(2 ul)” for “(2 μL)”, “was 200” for “was 10”, “20 ul” for “20 μL”, “vs Log 10” for “vs Log10”

ROCK2 [4] = target: T2, ROCK2; assay: as above; settings: read-out: Method B ROCK 2 (Ki)
Method: as §3
as §2, with “(2 ul)” for “(2 μL)”, “was 200” for “was 10”, “20 ul” for “20 μL”, “vs Log 10” for “vs Log10”

PKA = PKA (Homo sapiens, UniProt P17612); assay: In vitro inhibitory activity assay for PKA, ADP-Glo, reported as selectivity ratio vs ROCK2; settings: Ki for PKA divided by Ki of ROCK2 (Method B)
Method: In Vitro Inhibitory Activity Assay Description for PKA
The effectiveness of compounds of the present invention to inhibit PKA activity can be determined in a 10 μL assay containing 40 mM Tris pH7.5, 20 mM MgCl2 0.1 mg/mL BSA, 50 μM DTT and 260 μM peptide substrate (kemptide) using an ADP-Glo kit (Promega). Compounds were dissolved in DMSO such that the final concentration of DMSO was 1% in the assay. All reactions/incubations are performed at 25° C. Compound and PKA enzyme (6 μL) were mixed and incubated for 30 min. Reactions were initiated by addition of ATP (4 μL) such that the final concentration of ATP in the assay was 10 μM. After a 30 minute incubation 10 μL of ADP-Glo Reagent was added and after a further 1 hour incubation 20 μL of Kinase Detection Buffer was added and the mixture incubated for a further 45 minutes. The luminescent signal was measured on a luminometer. […] Compounds were tested in dose-response format and the inhibition of kinase activity was calculated at each concentration of compound. To determine the IC50 (concentration of compound required to inhibit 50% of the enzyme activity) data were fit to a plot of % inhibition vs Log10 compound concentration using a sigmoidal fit with a variable slope and fixing the maximum to 100% and the minimum to 0%. To determine the Ki values the Cheng-Prusoff equation was utilized (Ki=IC50/(1+[S]/Km).
In vitro inhibitory activities for PKA were reported as selectivity ratio vs. ROCK2. Selectivity ratio PKA/ROCK2 was calculated by dividing the Ki value for PKA by Ki value of ROCK2 (Method B) and reported into table 1.

T1 sequence (Q13464 whole entry): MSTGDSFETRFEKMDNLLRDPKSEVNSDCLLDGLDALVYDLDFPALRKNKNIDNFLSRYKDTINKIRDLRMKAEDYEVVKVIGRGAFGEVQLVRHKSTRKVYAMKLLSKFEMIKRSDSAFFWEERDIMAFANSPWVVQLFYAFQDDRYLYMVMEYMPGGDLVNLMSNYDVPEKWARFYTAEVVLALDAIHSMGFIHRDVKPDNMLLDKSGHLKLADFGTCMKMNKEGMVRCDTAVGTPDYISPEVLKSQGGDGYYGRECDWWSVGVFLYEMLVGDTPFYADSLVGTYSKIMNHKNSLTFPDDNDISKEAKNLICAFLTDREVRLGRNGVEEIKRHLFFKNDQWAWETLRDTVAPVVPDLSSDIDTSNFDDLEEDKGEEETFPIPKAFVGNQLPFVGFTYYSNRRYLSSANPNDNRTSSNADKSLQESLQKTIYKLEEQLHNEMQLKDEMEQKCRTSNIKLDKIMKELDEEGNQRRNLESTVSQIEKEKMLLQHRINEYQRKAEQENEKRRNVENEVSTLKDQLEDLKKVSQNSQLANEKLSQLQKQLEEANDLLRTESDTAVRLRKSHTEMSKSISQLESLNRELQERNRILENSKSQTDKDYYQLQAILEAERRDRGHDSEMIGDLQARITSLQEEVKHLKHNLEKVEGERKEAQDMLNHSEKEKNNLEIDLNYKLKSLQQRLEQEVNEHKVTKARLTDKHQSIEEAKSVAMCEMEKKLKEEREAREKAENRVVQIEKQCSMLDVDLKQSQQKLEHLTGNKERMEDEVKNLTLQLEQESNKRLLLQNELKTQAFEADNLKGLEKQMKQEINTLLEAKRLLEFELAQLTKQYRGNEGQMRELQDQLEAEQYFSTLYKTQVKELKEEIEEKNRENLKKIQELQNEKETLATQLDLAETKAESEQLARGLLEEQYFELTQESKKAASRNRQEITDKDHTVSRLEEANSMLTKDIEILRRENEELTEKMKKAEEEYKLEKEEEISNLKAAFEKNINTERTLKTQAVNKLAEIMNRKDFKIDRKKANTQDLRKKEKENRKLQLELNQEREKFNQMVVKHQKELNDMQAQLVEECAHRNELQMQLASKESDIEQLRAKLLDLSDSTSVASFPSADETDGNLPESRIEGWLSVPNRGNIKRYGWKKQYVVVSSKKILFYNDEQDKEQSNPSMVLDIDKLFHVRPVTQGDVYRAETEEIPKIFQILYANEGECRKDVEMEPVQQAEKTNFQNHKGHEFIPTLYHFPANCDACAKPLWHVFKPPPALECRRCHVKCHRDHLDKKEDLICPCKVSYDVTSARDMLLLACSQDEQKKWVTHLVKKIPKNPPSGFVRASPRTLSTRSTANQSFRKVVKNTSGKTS

O=C(NCCN1CCCCC1)c1cccc(CNc2ncc(-c3ccncc3)c3c2CCO3)c1 [Example 30, N-(2-(piperidin-1-yl)ethyl)-3-(((7-(pyridin-4-yl)-2,3-dihydrofuro[3,2-c]pyridin-4-yl)amino)methyl)benzamide]
Ki (ROCK1 [1]): ≤ 3 nM | Ki (ROCK2 [2]): ≤ 3 nM | Ki (ROCK1 [3]): 3 to 30 nM | Ki (ROCK2 [4]): 3 to 30 nM | Ratio (PKA/ROCK2) (PKA): *** (ratio≥10)

CN1CCn2nc(NC(=O)c3cccc(CNc4ncc(-c5ccncc5)c5c4CCO5)c3)cc2C1 [Example 21]
Ki (ROCK1 [1]): ≤ 3 nM | Ki (ROCK2 [2]): ≤ 3 nM | Ki (ROCK1 [3]): ≤ 3 nM | Ki (ROCK2 [4]): ≤ 3 nM

CN1CCc2sc(C(=O)Nc3cccc(CNc4ncc(-c5ccncc5)c5c4CCO5)c3)nc2C1 [Example 54, 5-methyl-N-(3-(((7-(pyridin-4-yl)-2,3-dihydrofuro[3,2-c]pyridin-4-yl)amino)methyl)phenyl)-4,5,6,7-tetrahydrothiazolo[4,5-c]pyridine-2-carboxamide]
Ki (ROCK1 [1]): ≤ 3 nM | Ki (ROCK2 [2]): ≤ 3 nM | Ki (ROCK1 [3]): ≤ 3 nM | Ki (ROCK2 [4]): ≤ 3 nM | Ratio (PKA/ROCK2) (PKA): *** (ratio≥10)

CNC(=O)c1cccc(CNc2ncc(-c3ccncc3)c3c2CCO3)c1 [Example 20, N-methyl-3-(((7-(pyridin-4-yl)-2,3-dihydrofuro[3,2-c]pyridin-4-yl)amino)methyl)benzamide]
Ki (ROCK1 [1]): 3 to 30 nM | Ki (ROCK2 [2]): 3 to 30 nM | Ki (ROCK1 [3]): 3 to 30 nM | Ki (ROCK2 [4]): 3 to 30 nM | Ratio (PKA/ROCK2) (PKA): *** (ratio≥10)

CN1CCN(CCCC(=O)Nc2cccc(CNc3ncc(-c4ccncc4)c4c3CCO4)c2)CC1 [Example 35, 4-(4-methylpiperazin-1-yl)-N-(3-(((7-(pyridin-4-yl)-2,3-dihydrofuro[3,2-c]pyridin-4-yl)amino)methyl)phenyl)butanamide]
Ki (ROCK1 [1]): ≤ 3 nM | Ki (ROCK2 [2]): ≤ 3 nM | Ki (ROCK1 [3]): ≤ 3 nM | Ki (ROCK2 [4]): ≤ 3 nM | Ratio (PKA/ROCK2) (PKA): *** (ratio≥10)

O=C(NCCN1CCOCC1)c1cccc(CNc2ncc(-c3ccncc3)c3c2CCO3)c1 [Example 28, N-(2-morpholinoethyl)-3-(((7-(pyridin-4-yl)-2,3-dihydrofuro[3,2-c]pyridin-4-yl)amino)methyl)benzamide]
Ki (ROCK1 [1]): ≤ 3 nM | Ki (ROCK2 [2]): ≤ 3 nM | Ki (ROCK1 [3]): 3 to 30 nM | Ki (ROCK2 [4]): 3 to 30 nM | Ratio (PKA/ROCK2) (PKA): *** (ratio≥10)

CN1CCc2nc(NC(=O)c3cccc(CNc4ncc(-c5ccncc5)c5c4CCO5)n3)sc2C1 [Example 52, N-(5-methyl-4,5,6,7-tetrahydrothiazolo[5,4-c]pyridin-2-yl)-6-(((7-(pyridin-4-yl)-2,3-dihydrofuro[3,2-c]pyridin-4-yl)amino)methyl)picolinamide]
Ki (ROCK1 [1]): 3 to 30 nM | Ki (ROCK2 [2]): ≤ 3 nM

O=C(Nc1ncc(CN2CCCC2)s1)c1cccc(CNc2ncc(-c3ccncc3)c3c2CCO3)c1 [Example 1, 3-(((7-(Pyridin-4-yl)-2,3-dihydrofuro[3,2-c]pyridin-4-yl)amino)methyl)-N-(5-(pyrrolidin-1-ylmethyl)thiazol-2-yl)benzamide]
Ki (ROCK1 [1]): ≤ 3 nM | Ki (ROCK2 [2]): ≤ 3 nM | Ki (ROCK1 [3]): ≤ 3 nM | Ki (ROCK2 [4]): ≤ 3 nM

Cc1cc(-c2cnc(NCc3cccc(C(=O)Nc4nc5c(s4)CN(C)CC5)c3)c3c2OCC3)ccn1 [Example 47, N-(5-Methyl-4,5,6,7-tetrahydrothiazolo[5,4-c]pyridin-2-yl)-3-(((7-(2-methylpyridin-4-yl)-2,3-dihydrofuro[3,2-c]pyridin-4-yl)amino)methyl)benzamide]
Ki (ROCK1 [1]): 3 to 30 nM | Ki (ROCK2 [2]): 3 to 30 nM

CN1CCC(CCNC(=O)c2cccc(CNc3ncc(-c4ccncc4)c4c3CCO4)c2)CC1 [Example 22, N-(2-(1-methylpiperidin-4-yl)ethyl)-3-(((7-(pyridin-4-yl)-2,3-dihydrofuro[3,2-c]pyridin-4-yl)amino)methyl)benzamide]
Ki (ROCK1 [1]): ≤ 3 nM | Ki (ROCK2 [2]): ≤ 3 nM | Ki (ROCK1 [3]): ≤ 3 nM | Ki (ROCK2 [4]): ≤ 3 nM | Ratio (PKA/ROCK2) (PKA): *** (ratio≥10)

O=C(Nc1cccc(CNc2ncc(-c3ccncc3)c3c2CCO3)c1)c1cccc(CN2CCOCC2)c1 [Example 33, 3-(morpholinomethyl)-N-(3-(((7-(pyridin-4-yl)-2,3-dihydrofuro[3,2-c]pyridin-4-yl)amino)methyl)phenyl)benzamide]
Ki (ROCK1 [1]): 3 to 30 nM | Ki (ROCK2 [2]): 3 to 30 nM

CN(C)Cc1cccc(CNC(=O)c2cccc(CNc3ncc(-c4ccncc4)c4c3CCO4)c2)c1 [Example 27, N-(3-((dimethylamino)methyl)benzyl)-3-(((7-(pyridin-4-yl)-2,3-dihydrofuro[3,2-c]pyridin-4-yl)amino)methyl)benzamide]
Ki (ROCK1 [1]): ≤ 3 nM | Ki (ROCK2 [2]): ≤ 3 nM

CN1CCc2nc(NC(=O)c3cccc(CNc4ncc(-c5ccncc5)c5c4CCO5)c3)sc2C1 [Example 23, N-(5-methyl-4,5,6,7-tetrahydrothiazolo[5,4-c]pyridin-2-yl)-3-(((7-(pyridin-4-yl)-2,3-dihydrofuro[3,2-c]pyridin-4-yl)amino)methyl)benzamide]
Ki (ROCK1 [1]): ≤ 3 nM | Ki (ROCK2 [2]): ≤ 3 nM

O=C(Nc1cccc(CNc2ncc(-c3ccncc3)c3c2CCO3)c1)c1ccc(CN2CCOCC2)cc1 [Example 36, 4-(morpholinomethyl)-N-(3-(((7-(pyridin-4-yl)-2,3-dihydrofuro[3,2-c]pyridin-4-yl)amino)methyl)phenyl)benzamide]
Ki (ROCK1 [1]): ≤ 3 nM | Ki (ROCK2 [2]): ≤ 3 nM | Ki (ROCK1 [3]): ≤ 3 nM | Ki (ROCK2 [4]): ≤ 3 nM | Ratio (PKA/ROCK2) (PKA): *** (ratio≥10)

O=C(NCCc1cccnc1)c1cccc(CNc2ncc(-c3ccncc3)c3c2CCO3)c1 [Example 29, N-(2-(pyridin-3-yl)ethyl)-3-(((7-(pyridin-4-yl)-2,3-dihydrofuro[3,2-c]pyridin-4-yl)amino)methyl)benzamide]
Ki (ROCK1 [1]): ≤ 3 nM | Ki (ROCK2 [2]): ≤ 3 nM

O=C(N[C@H](CO)c1ccccc1)c1cccc(CNc2ncc(-c3ccncc3)c3c2CCO3)c1 [Example 24, (S)-N-(2-hydroxy-1-phenylethyl)-3-(((7-(pyridin-4-yl)-2,3-dihydrofuro[3,2-c]pyridin-4-yl)amino)methyl)benzamide]
Ki (ROCK1 [1]): ≤ 3 nM | Ki (ROCK2 [2]): ≤ 3 nM

CC1CCN(CCC(=O)Nc2cccc(CNc3ncc(-c4ccncc4)c4c3CCO4)c2)CC1 [Example 32, 3-(4-Methylpiperidin-1-yl)-N-(3-(((7-(pyridin-4-yl)-2,3-dihydrofuro[3,2-c]pyridin-4-yl)amino)methyl)phenyl)propanamide]
Ki (ROCK1 [1]): 3 to 30 nM | Ki (ROCK2 [2]): 3 to 30 nM

CN1CCc2nc(NC(=O)c3ccnc(CNc4ncc(-c5ccncc5)c5c4CCO5)c3)sc2C1 [Example 51, N-(5-methyl-4,5,6,7-tetrahydrothiazolo[5,4-c]pyridin-2-yl)-2-(((7-(pyridin-4-yl)-2,3-dihydrofuro[3,2-c]pyridin-4-yl)amino)methyl)isonicotinamide]
Ki (ROCK1 [1]): 3 to 30 nM | Ki (ROCK2 [2]): ≤ 3 nM

From patent US12534474B2, “Dihydrofuropyridine derivatives as rho-kinase inhibitors” (CHIESI FARMACEUTICI S.P.A., priority 2020, dated 2026)
